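The compound was tested at five concentrations on cells cultured in 96-well plates, with a 48-hour exposure period. GI50 = concentration required for 50% inhibition of growth. TGI: total growth inhibition.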
Legend:
Experiment in all cases: NCI-60 cell line screen, 48 h
HL-60(TB) leukemia = system: HL-60(TB) leukemia
IGROV1 ovarian = system: IGROV1 ovarian
SK-MEL-5 melanoma = system: SK-MEL-5 melanoma
KM20L2 colon = system: KM20L2 colon
SNB-19 CNS = system: SNB-19 CNS
NCI-H226 lung = system: NCI-H226 lung
NCI-H522 lung = system: NCI-H522 lung
SF-268 CNS = system: SF-268 CNS
HOP-92 NSCLC = system: HOP-92 NSCLC
OVCAR-4 ovarian = system: OVCAR-4 ovarian
SK-MEL-28 melanoma = system: SK-MEL-28 melanoma
OVCAR-5 ovarian = system: OVCAR-5 ovarian
CCRF-CEM leukemia = system: CCRF-CEM leukemia
COLO 205 colon = system: COLO 205 colon
LXFL 529 NSCLC = system: LXFL 529 NSCLC
RPMI-8226 leukemia = system: RPMI-8226 leukemia
M19-MEL melanoma = system: M19-MEL melanoma
TK-10 renal = system: TK-10 renal
CAKI-1 renal = system: CAKI-1 renal
SK-OV-3 ovarian = system: SK-OV-3 ovarian
A498 renal = system: A498 renal
SF-295 CNS = system: SF-295 CNS
MOLT-4 leukemia = system: MOLT-4 leukemia
K-562 leukemia = system: K-562 leukemia
MALME-3M melanoma = system: MALME-3M melanoma
DLD-1 colon = system: DLD-1 colon
DMS 114 small cell lung = system: DMS 114 small cell lung
NCI-H23 lung = system: NCI-H23 lung
XF 498 CNS = system: XF 498 CNS
UACC-257 melanoma = system: UACC-257 melanoma
OVCAR-8 ovarian = system: OVCAR-8 ovarian
SW-620 colon = system: SW-620 colon
OVCAR-3 ovarian = system: OVCAR-3 ovarian
UO-31 renal = system: UO-31 renal
UACC-62 melanoma = system: UACC-62 melanoma
U251 CNS = system: U251 CNS
EKVX NSCLC = system: EKVX NSCLC
HT29 colon = system: HT29 colon
A549 NSCLC = system: A549 NSCLC
SNB-78 CNS = system: SNB-78 CNS
HCT-116 colon = system: HCT-116 colon
RXF-631 renal = system: RXF-631 renal
786-0 renal = system: 786-0 renal
LOX IMVI melanoma = system: LOX IMVI melanoma
HCC-2998 colon = system: HCC-2998 colon
HOP-62 NSCLC = system: HOP-62 NSCLC
SNB-75 CNS = system: SNB-75 CNS
DMS 273 small cell lung = system: DMS 273 small cell lung
SF-539 CNS = system: SF-539 CNS
M14 melanoma = system: M14 melanoma
SK-MEL-2 melanoma = system: SK-MEL-2 melanoma
KM12 colon = system: KM12 colon
RXF 393 renal = system: RXF 393 renal
HOP-18 NSCLC = system: HOP-18 NSCLC
HCT-15 colon = system: HCT-15 colon
ACHN renal = system: ACHN renal
SR leukemia = system: SR leukemia
NCI-H460 lung = system: NCI-H460 lung

Cc1c2ccncc2c(C)c2c1[nH]c1ccc(OC(C)(C)C)cc12
TGI (HL-60(TB) leukemia): 3.83 µM
TGI (IGROV1 ovarian): 26.8 µM
TGI (SK-MEL-5 melanoma): 4.9 µM
TGI (KM20L2 colon): 11.1 µM
TGI (SNB-19 CNS): 7.53 µM
TGI (NCI-H226 lung): 14.8 µM
TGI (NCI-H522 lung): 5.81 µM
TGI (SF-268 CNS): 25.5 µM
TGI (HOP-92 NSCLC): 25.1 µM
TGI (OVCAR-4 ovarian): 4.21 µM
TGI (SK-MEL-28 melanoma): 3.77 µM
TGI (OVCAR-5 ovarian): 54.9 µM
TGI (CCRF-CEM leukemia): 5.77 µM
TGI (COLO 205 colon): 3.12 µM
TGI (LXFL 529 NSCLC): 5.5 µM
TGI (RPMI-8226 leukemia): 5.49 µM
TGI (M19-MEL melanoma): 5.54 µM
TGI (TK-10 renal): 18.1 µM
TGI (CAKI-1 renal): 3.4 µM
TGI (SK-OV-3 ovarian): 18.8 µM
TGI (A498 renal): 26.2 µM
TGI (SF-295 CNS): 4.87 µM
TGI (MOLT-4 leukemia): 4.66 µM
TGI (K-562 leukemia): 4.93 µM
TGI (MALME-3M melanoma): 3.31 µM
TGI (DLD-1 colon): 10.4 µM
TGI (DMS 114 small cell lung): 4.29 µM
TGI (NCI-H23 lung): 24.9 µM
TGI (XF 498 CNS): 3.75 µM
TGI (UACC-257 melanoma): 4.01 µM
TGI (OVCAR-8 ovarian): 9.75 µM
TGI (SW-620 colon): 5.1 µM
TGI (OVCAR-3 ovarian): 3.42 µM
TGI (UO-31 renal): 4.3 µM
TGI (UACC-62 melanoma): 5.43 µM
TGI (U251 CNS): 10.1 µM
TGI (EKVX NSCLC): 36.2 µM
TGI (HT29 colon): 7.09 µM
TGI (A549 NSCLC): 13.1 µM
TGI (SNB-78 CNS): 6.53 µM
TGI (HCT-116 colon): 3.36 µM
TGI (RXF-631 renal): 6.58 µM
TGI (786-0 renal): 2.96 µM
TGI (LOX IMVI melanoma): 7.53 µM
TGI (HCC-2998 colon): 3.78 µM
TGI (HOP-62 NSCLC): 9.74 µM
TGI (SNB-75 CNS): 3.73 µM
TGI (DMS 273 small cell lung): 4.36 µM
TGI (SF-539 CNS): 2.93 µM
TGI (M14 melanoma): 14.9 µM
TGI (SK-MEL-2 melanoma): 3.88 µM

CCCCCCCCCCCCC(=O)[O-].CCCCCCCCCCCCC(=O)[O-].CCCCCCCCCCCCC(=O)[O-].CCCCCCCCCCCCC(=O)[O-].[Mo+2].[Mo+2]
GI50 (HL-60(TB) leukemia): 2.82 µM
TGI (HL-60(TB) leukemia): 7.8 µM
GI50 (IGROV1 ovarian): 15.5 µM
TGI (IGROV1 ovarian): 40.2 µM
GI50 (KM12 colon): 10.9 µM
TGI (KM12 colon): 29.1 µM
GI50 (KM20L2 colon): 16.2 µM
TGI (KM20L2 colon): 34.9 µM
GI50 (SNB-19 CNS): 26.5 µM
TGI (SNB-19 CNS): > 100 µM
GI50 (NCI-H226 lung): 12.4 µM
TGI (NCI-H226 lung): 46.8 µM
GI50 (SF-268 CNS): 17.3 µM
TGI (SF-268 CNS): 45.1 µM
GI50 (HOP-92 NSCLC): 3.56 µM
TGI (HOP-92 NSCLC): 9.35 µM
GI50 (OVCAR-4 ovarian): 10.2 µM
TGI (OVCAR-4 ovarian): 24.2 µM
GI50 (SK-MEL-28 melanoma): 21.4 µM
TGI (SK-MEL-28 melanoma): 65.7 µM
GI50 (RXF 393 renal): 12 µM
TGI (RXF 393 renal): 26.1 µM
GI50 (OVCAR-5 ovarian): 23.6 µM
TGI (OVCAR-5 ovarian): 67 µM
GI50 (CCRF-CEM leukemia): 2.29 µM
TGI (CCRF-CEM leukemia): 10 µM
GI50 (COLO 205 colon): 19.3 µM
TGI (COLO 205 colon): 46.4 µM
GI50 (LXFL 529 NSCLC): 10.7 µM
TGI (LXFL 529 NSCLC): 22.8 µM
GI50 (RPMI-8226 leukemia): 4.08 µM
TGI (RPMI-8226 leukemia): 37 µM
GI50 (M19-MEL melanoma): 18.7 µM
TGI (M19-MEL melanoma): > 100 µM
GI50 (TK-10 renal): 32.6 µM
TGI (TK-10 renal): 94.6 µM
GI50 (SK-OV-3 ovarian): 15.1 µM
TGI (SK-OV-3 ovarian): 59.9 µM
GI50 (SF-295 CNS): 6.28 µM
TGI (SF-295 CNS): 27.7 µM
GI50 (HOP-18 NSCLC): 20.6 µM
TGI (HOP-18 NSCLC): 34.9 µM
GI50 (MOLT-4 leukemia): 3.57 µM
TGI (MOLT-4 leukemia): 22.5 µM
GI50 (K-562 leukemia): 10.9 µM
TGI (K-562 leukemia): 79.8 µM
GI50 (MALME-3M melanoma): 11.4 µM
TGI (MALME-3M melanoma): 28 µM
GI50 (DLD-1 colon): 7.9 µM
TGI (DLD-1 colon): 23.3 µM
GI50 (DMS 114 small cell lung): 6.62 µM
TGI (DMS 114 small cell lung): 26 µM
GI50 (NCI-H23 lung): 17.9 µM
TGI (NCI-H23 lung): 40.6 µM
GI50 (HCT-15 colon): 10.4 µM
TGI (HCT-15 colon): 22.1 µM
GI50 (XF 498 CNS): 11.3 µM
TGI (XF 498 CNS): 23.4 µM
GI50 (UACC-257 melanoma): 26.5 µM
TGI (UACC-257 melanoma): 96.1 µM
GI50 (OVCAR-8 ovarian): 11.9 µM
TGI (OVCAR-8 ovarian): 31.3 µM
GI50 (SW-620 colon): 15.1 µM
TGI (SW-620 colon): 29 µM
GI50 (OVCAR-3 ovarian): 12.4 µM
TGI (OVCAR-3 ovarian): 24.9 µM
GI50 (UO-31 renal): 14.7 µM
TGI (UO-31 renal): 41.9 µM
GI50 (UACC-62 melanoma): 11.7 µM
TGI (UACC-62 melanoma): 26.9 µM
GI50 (U251 CNS): 10.7 µM
TGI (U251 CNS): 22.6 µM
GI50 (EKVX NSCLC): 19.7 µM
TGI (EKVX NSCLC): 35.8 µM
GI50 (HT29 colon): 12.6 µM
TGI (HT29 colon): 27.1 µM
GI50 (A549 NSCLC): 14.9 µM
TGI (A549 NSCLC): 44.2 µM
GI50 (SNB-78 CNS): 19.9 µM
TGI (SNB-78 CNS): 67.3 µM
GI50 (HCT-116 colon): 8.98 µM
TGI (HCT-116 colon): 27.3 µM
GI50 (ACHN renal): 16 µM
TGI (ACHN renal): 30.4 µM
GI50 (RXF-631 renal): 0.403 µM
TGI (RXF-631 renal): 2.06 µM
GI50 (786-0 renal): 3.68 µM
TGI (786-0 renal): 16 µM
GI50 (LOX IMVI melanoma): 12.1 µM
TGI (LOX IMVI melanoma): 25.2 µM
GI50 (SR leukemia): 5.83 µM
TGI (SR leukemia): 29.8 µM
GI50 (HCC-2998 colon): 19.9 µM
TGI (HCC-2998 colon): 49.8 µM
GI50 (SF-539 CNS): 13.9 µM
TGI (SF-539 CNS): 29.1 µM
GI50 (M14 melanoma): 11.7 µM
TGI (M14 melanoma): 27.8 µM
GI50 (SK-MEL-2 melanoma): 12.2 µM
TGI (SK-MEL-2 melanoma): 28 µM
GI50 (NCI-H460 lung): 17.1 µM
TGI (NCI-H460 lung): 60.1 µM
